Where two headings read alike, the source gives them in different places.

This is an account of results in patent US20080051419A1, “AMINE DERIVATIVES USEFUL AS ANTICANCER AGENTS” (PFIZER INC., priority 2006, published 2008).

The target in the assay is T1, Akt1 (Homo sapiens, UniProt P31749, S473D).
T1 construct: The version of Akt used in these studies lacks the pleckstrin homology (PH) domain
The experiment in a line: Akt1 kinase assay, fluorescence polarization (IMAP). The format is biochemical. In outline:
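His-tagged Akt1 lacking the PH domain, Thr308-prephosphorylated, 1.5 ng per reaction, with 4 μM ATP and 40 nM TAMRA-Crosstide (solution concentrations) in Tris pH 7.5/MgCl2/DTT buffer. Incubated 30 min at ambient temperature; IMAP fluorescence polarization read (544/615 nm). IC50 after subtraction of no-enzyme background.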
(Fluorescence polarisation rises when a labelled molecule tumbles more slowly, as on binding a larger partner.)

The mark [1] stands for this setting: Table 1, concentration bins, read-out: Concentration Range at which exemplary compounds of formula I inhibit Akt kinase activity.
Where [2] appears, read: average Akt kinase activity (IC50), read-out: Avg Akt kinase, μM (50% inhibition).

T1 sequence (P31749 118-480 S473D limits assumed, species assumed): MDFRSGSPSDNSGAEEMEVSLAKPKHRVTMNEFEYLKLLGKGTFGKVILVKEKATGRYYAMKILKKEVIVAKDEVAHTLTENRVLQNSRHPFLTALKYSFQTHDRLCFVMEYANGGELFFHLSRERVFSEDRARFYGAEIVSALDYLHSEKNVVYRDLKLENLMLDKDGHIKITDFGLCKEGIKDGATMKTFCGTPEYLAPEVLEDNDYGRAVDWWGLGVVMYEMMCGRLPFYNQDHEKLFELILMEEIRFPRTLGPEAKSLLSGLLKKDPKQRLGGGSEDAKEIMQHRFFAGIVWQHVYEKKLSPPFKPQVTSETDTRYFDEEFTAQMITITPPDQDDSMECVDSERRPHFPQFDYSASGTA

For the molecule `Cc1c[nH]c2ncnc(N3CCC(N)(CCc4cccc(C(F)(F)F)c4)C3)c12` (stereo not drawn) [Example 67, 1-(5-methyl-7H-pyrrolo[2,3-d]pyrimidin-4-yl)-3-{2-[3-(trifluoromethyl) -phenyl]ethyl}pyrrolidin-3-amine], the IC50 under setting [1] was in the range of 0.101 to 10 µM and the IC50 under setting [2] amounted to 0.126 µM.
Consider `Cc1c[nH]c2ncnc(N3CCC(N)(CNC(=O)c4ccccc4)C3)c12` (stereo not drawn) [Example 69, N-((3-amino-1-(5-methyl-7H-pyrrolo[2,3-d]pyrimidin-4-yl)pyrrolidin-3-yl)methyl)benzamide], for which the IC50 by setting is: under setting [1], 0.0101 to 0.1 µM; under setting [2], 0.0623 µM.
For `N[C@]1(CNC(=O)c2ccc(Cl)cc2)CCN(c2ncnc3[nH]cc(Cl)c23)C1` [Example 70, N—(((S)-3-amino-1-(5-chloro-7H-pyrrolo[2,3-d]pyrimidinechlorobenzamide (70)-4-yl)pyrrolidin-3-yl)methyl)-4] the same measures were 0.00251 to 0.01 µM and 0.00544 µM.
For `Cc1c[nH]c2ncnc(N3CC[C@](N)(CNC(=O)c4ccccc4Cl)C3)c12` [Example 71, N—(((S)-3-amino-1-(5-methyl-7H-pyrrolo[2,3-d]pyrimidin-4-yl)pyrrolidin-3-yl)methyl)-2-chlorobenzamide] the same measures were 0.00251 to 0.01 µM and 0.00797 µM.
Turning to `CCc1c[nH]c2ncnc(N3CC[C@](N)(CNC(=O)c4ccc(F)cc4F)C3)c12` [Example 73, N-{[(3S)-3-amino-1-(5-ethyl-7H-pyrrolo[2,3-d]pyrimidin-4-yl)pyrrolidin-3-yl]methyl}-2,4-difluorobenzamide], the IC50 is 0.00025 to 0.0025 µM under setting [1] and 0.000269 µM under setting [2].
With `Cc1c[nH]c2ncnc(N3CC[C@](N)(CNC(=O)c4ccc(Cl)cc4)C3)c12` [Example 74, (S)—N-((3-amino-1-(5-methyl-7H-pyrrolo[2,3-d]pyrimidin-4-yl)pyrrolidin-3-yl)methyl)-4-chlorobenzamide], the IC50 by setting is: under setting [1], 0.0101 to 0.1 µM; under setting [2], 0.0114 µM.
For `Cc1cccc(NC(=O)NCC2(N)CCN(c3ncnc4[nH]cc(C)c34)C2)c1C` (stereo not drawn) [Example 75, 1-{[3-amino-1-(5-methyl-7H-pyrrolo[2,3-d]pyrimidin-4-yl)pyrrolidin-3-yl]methyl}-3-(2,3-dimethylphenyl)urea] the same measures were 0.101 to 10 µM and 0.185 µM.
The like results for `COCCN(CC1(N)CCN(c2ncnc3[nH]cc(C)c23)C1)C(=O)Nc1ccccc1` (stereo not drawn) [Example 76, 1-{[3-amino-1-(5-methyl-7H-pyrrolo[2,3-d]pyrimidin-4-yl)pyrrolidin-3-yl]methyl}-1-(2-methoxyethyl)-3-phenylurea] were, in that order, 0.101 to 10 µM and 0.523 µM.
The like results for `Cc1c[nH]c2ncnc(N3CCC(N)(CNS(=O)(=O)c4ccccc4)C3)c12` (stereo not drawn) [Example 77, N-{[3-amino-1-(5-methyl-7H-pyrrolo[2,3-d]pyrimidin-4-yl)pyrrolidin-3-yl]methyl}benzenesulfonamide] were, in that order, 0.101 to 10 µM and 0.177 µM.
As to `N[C@]1(CNC(=O)c2ccc(F)cc2)CCN(c2ncnc3[nH]cc(Cl)c23)C1` [Example 78, N-{[(3S)-3-amino-1-(5-chloro-7H-pyrrolo[2,3-d]pyrimidin-4-yl)pyrrolidin-3-yl]methyl}-4-fluorobenzamide], the IC50 was 0.00251 to 0.01 µM under setting [1] and 0.00267 µM under setting [2].
The like results for `Cc1cc(C(=O)NC[C@]2(N)CCN(c3ncnc4[nH]cc(Cl)c34)C2)no1` [Example 79] were, in that order, 0.00251 to 0.01 µM and 0.00377 µM.
The like results for `N[C@]1(CNC(=O)c2ccccc2F)CCN(c2ncnc3[nH]cc(Cl)c23)C1` [Example 80, N-{[(3S)-3-amino-1-(5-chloro-7H-pyrrolo[2,3-d]pyrimidin-4-yl)pyrrolidin-3-yl]methyl}-2-fluorobenzamide] were, in that order, 0.00251 to 0.01 µM and 0.00424 µM.
The like results for `N[C@]1(CNC(=O)c2cccc(F)c2F)CCN(c2ncnc3[nH]cc(Cl)c23)C1` [Example 81, N-{[(3S)-3-amino-1-(5-chloro-7H-pyrrolo[2,3-d]pyrimidin-4-yl)pyrrolidin-3-yl]methyl}-2,3-difluorobenzamide] were, in that order, 0.00251 to 0.01 µM and 0.00346 µM.
On to `N[C@]1(CNC(=O)c2ccc(F)cc2F)CCN(c2ncnc3[nH]cc(Cl)c23)C1` [Example 82, N-{[(3S)-3-amino-1-(5-chloro-7H-pyrrolo[2,3-d]pyrimidin-4-yl)pyrrolidin-3-yl]methyl}-2,4-difluorobenzamide], for which the IC50 under setting [1] lay in the range of 0.00025 to 0.0025 µM and the IC50 under setting [2] amounted to 0.00163 µM.
The like results for `N[C@]1(CNC(=O)c2ccc(Cl)c(F)c2)CCN(c2ncnc3[nH]cc(Cl)c23)C1` [Example 83, N-{[(3S)-3-amino-1-(5-chloro-7H-pyrrolo[2,3-d]pyrimidin-4-yl)pyrrolidin-3-yl]methyl}-4-chloro-3-fluorobenzamide] were, in that order, 0.00251 to 0.01 µM and 0.00915 µM.
For `N[C@]1(CNC(=O)c2ccc(Cl)cc2F)CCN(c2ncnc3[nH]cc(Cl)c23)C1` [Example 84, N-{[(3S)-3-amino-1-(5-chloro-7H-pyrrolo[2,3-d]pyrimidin-4-yl)pyrrolidin-3-yl]methyl}-4-chloro-2-fluorobenzamide] the same measures were 0.0101 to 0.1 µM and 0.0111 µM.
The like results for `N[C@]1(CNC(=O)c2ccccc2Cl)CCN(c2ncnc3[nH]cc(Cl)c23)C1` [Example 85, N-{[(3S)-3-amino-1-(5-chloro-7H-pyrrolo[2,3-d]pyrimidin-4-yl)pyrrolidin-3-yl]methyl}-2-chlorobenzamide] were, in that order, 0.00251 to 0.01 µM and 0.00643 µM.
For the molecule `N#Cc1c[nH]c2ncnc(N3CC[C@](N)(CNC(=O)c4ccc(Cl)cc4)C3)c12` [Example 86], the IC50 under setting [1] fell in the range of 0.0101 to 0.1 µM and the IC50 under setting [2] came to 0.0175 µM.
For `Cc1c[nH]c2ncnc(N3CC[C@](N)(CNC(=O)c4cccc(F)c4F)C3)c12` [Example 87] the same measures were 0.00251 to 0.01 µM and 0.00758 µM.
Take `CCc1c[nH]c2ncnc(N3CC[C@](N)(CNC(=O)c4ccc(Cl)cc4)C3)c12` [Example 88]: the IC50 is, setting by setting: under setting [1], 0.00025 to 0.0025 µM; under setting [2], 0.0018 µM.
Regarding `CCc1c[nH]c2ncnc(N3CC[C@](N)(CNC(=O)c4cccc(F)c4F)C3)c12` [Example 89], the IC50 under setting [1] was 0.00251 to 0.01 µM and the IC50 under setting [2] is 0.00278 µM.
As to `N#Cc1c[nH]c2ncnc(N3CC[C@](N)(CNC(=O)c4cccc(F)c4F)C3)c12` [Example 90], the IC50 is, setting by setting: under setting [1], 0.0101 to 0.1 µM; under setting [2], 0.0395 µM.
The like results for `CCc1c[nH]c2ncnc(N3CC[C@@](N)(CNC(=O)c4cc(C)on4)C3)c12` [Example 91] were, in that order, 0.00251 to 0.01 µM and 0.00392 µM.
The like results for `CCc1c[nH]c2ncnc(N3CC[C@](N)(CNC(=O)c4ccc(F)cc4)C3)c12` [Example 93] were, in that order, 0.00025 to 0.0025 µM and 0.00191 µM.
For `N#Cc1c[nH]c2ncnc(N3CC[C@](N)(CNC(=O)c4ccc(F)cc4)C3)c12` [Example 94] the same measures were 0.00251 to 0.01 µM and 0.00923 µM.
With `CCCc1c[nH]c2ncnc(N3CC[C@@](N)(CNC(=O)c4cc(C)on4)C3)c12` [Example 95, N-{[(3R)-3-amino-1-(5-propyl-7H-pyrrolo[2,3-d]pyrimidin-4-yl)pyrrolidin-3-yl]methyl}-5-methylisoxazole-3-carboxamide], the IC50 under setting [1] is 0.00251 to 0.01 µM and the IC50 under setting [2] is 0.00433 µM.
For `N#Cc1c[nH]c2ncnc(N3CC[C@](N)(CNC(=O)c4ccc(F)cc4F)C3)c12` [Example 96, N-{[(3S)-3-amino-1-(5-cyano-7H-pyrrolo[2,3-d]pyrimidin-4-yl)pyrrolidin-3-yl]methyl}-2,4-difluorobenzamide] the same measures were 0.00251 to 0.01 µM and 0.00771 µM.
For `Cc1c[nH]c2ncnc(N3CC[C@](N)(CNC(=O)c4ccc(F)cc4F)C3)c12` [Example 97, N-{[(3S)-3-amino-1-(5-methyl-7H-pyrrolo[2,3-d]pyrimidin-4-yl)pyrrolidin-3-yl]methyl}-2,4-difluorobenzamide], the IC50 reads like this: under setting [1], 0.00025 to 0.0025 µM; under setting [2], 0.000979 µM.
The like results for `CCc1c[nH]c2ncnc(N3CC[C@](N)(CNC(=O)c4ccccc4F)C3)c12` [Example 98, N-{[(3S)-3-amino-1-(5-ethyl-7H-pyrrolo[2,3-d]pyrimidin-4-yl)pyrrolidin-3-yl]methyl}-2-fluorobenzamide] were, in that order, 0.00025 to 0.0025 µM and 0.000683 µM.
The like results for `N#Cc1c[nH]c2ncnc(N3CC[C@](N)(CNC(=O)c4ccc(Cl)cc4F)C3)c12` [Example 99, N-{[(3S)-3-amino-1-(5-cyano-7H-pyrrolo[2,3-d]pyrimidin-4-yl)pyrrolidin-3-yl]methyl}-4-chloro-2-fluorobenzamide] were, in that order, 0.0101 to 0.1 µM and 0.0186 µM.
The like results for `Cc1c[nH]c2ncnc(N3CC[C@](N)(CNC(=O)c4ccc(F)cc4Cl)C3)c12` [Example 100, N-{[(3S)-3-amino-1-(5-methyl-7H-pyrrolo[2,3-d]pyrimidin-4-yl)pyrrolidin-3-yl]methyl}-2-chloro-4-fluorobenzamide] were, in that order, 0.00251 to 0.01 µM and 0.00972 µM.
In the case of `Cc1c[nH]c2ncnc(N3CC[C@](N)(CNC(=O)c4cc(F)ccc4F)C3)c12` [Example 101, N-{[(3S)-3-amino-1-(5-methyl-7H-pyrrolo[2,3-d]pyrimidin-4-yl)pyrrolidin-3-yl]methyl}-2,5-difluorobenzamide], the IC50 under setting [1] lay within 0.0101 to 0.1 µM and the IC50 under setting [2] is 0.015 µM.
For `Cc1c[nH]c2ncnc(N3CC[C@](N)(CNC(=O)c4ccc(Cl)cc4F)C3)c12` [Example 102, N-{[(3S)-3-amino-1-(5-methyl-7H-pyrrolo[2,3-d]pyrimidin-4-yl)pyrrolidin-3-yl]methyl}-4-chloro-2-fluorobenzamide] the same measures were 0.0101 to 0.1 µM and 0.014 µM.
